Results taken from US20050282910A1, “Methods of application of chemical compounds having therapeutic activities in treating cancers” (priority 2003, published 2005).
Converted amounts (≈) assume the structure as drawn. Read-outs that look alike come from different tables or passages of the source.

Assays:
[1] = test system: human leukemia MDR cell line K562/adr; experiment: Reversal of P-glycoprotein-mediated drug resistance by Schisandrin A, Schisandrol A, Schisantherin A, MTT cytotoxicity of anticancer agents; type: cell-based; settings: for IC50: Homo sapiens, K562/Adr, 72 h
Experimental: Assays were carried out in triplicate against human leukemia MDR cell line K562/adr, human breast cancer MDR cell line MCF7/adr, and human epidermoid carcinoma MDR cell line KBv200.

HL60/adr = experiment: Reversal of MRP1-mediated drug resistance, MTT cytotoxicity of anticancer agents; type: cell-based, human; settings: for IC50: Homo sapiens, HL60/ADR, 72 h
Experimental: Assays were carried out in triplicate against MDR cancer cell HL60/adr. MTT assays as described previously (X.

P-glycoprotein = P-glycoprotein (Homo sapiens, UniProt P08183); experiment: Daunorubicin accumulation in MCF7/adr cells (P-glycoprotein-mediated drug efflux), flow cytometry; type: cell-based; settings: 2 μg/ml daunorubicin; 0, 1, 10, 20, 40, and 80 μg/ml compound; 60 minutes; FIG. 5
P-glycoprotein, sequence (P08183 whole entry): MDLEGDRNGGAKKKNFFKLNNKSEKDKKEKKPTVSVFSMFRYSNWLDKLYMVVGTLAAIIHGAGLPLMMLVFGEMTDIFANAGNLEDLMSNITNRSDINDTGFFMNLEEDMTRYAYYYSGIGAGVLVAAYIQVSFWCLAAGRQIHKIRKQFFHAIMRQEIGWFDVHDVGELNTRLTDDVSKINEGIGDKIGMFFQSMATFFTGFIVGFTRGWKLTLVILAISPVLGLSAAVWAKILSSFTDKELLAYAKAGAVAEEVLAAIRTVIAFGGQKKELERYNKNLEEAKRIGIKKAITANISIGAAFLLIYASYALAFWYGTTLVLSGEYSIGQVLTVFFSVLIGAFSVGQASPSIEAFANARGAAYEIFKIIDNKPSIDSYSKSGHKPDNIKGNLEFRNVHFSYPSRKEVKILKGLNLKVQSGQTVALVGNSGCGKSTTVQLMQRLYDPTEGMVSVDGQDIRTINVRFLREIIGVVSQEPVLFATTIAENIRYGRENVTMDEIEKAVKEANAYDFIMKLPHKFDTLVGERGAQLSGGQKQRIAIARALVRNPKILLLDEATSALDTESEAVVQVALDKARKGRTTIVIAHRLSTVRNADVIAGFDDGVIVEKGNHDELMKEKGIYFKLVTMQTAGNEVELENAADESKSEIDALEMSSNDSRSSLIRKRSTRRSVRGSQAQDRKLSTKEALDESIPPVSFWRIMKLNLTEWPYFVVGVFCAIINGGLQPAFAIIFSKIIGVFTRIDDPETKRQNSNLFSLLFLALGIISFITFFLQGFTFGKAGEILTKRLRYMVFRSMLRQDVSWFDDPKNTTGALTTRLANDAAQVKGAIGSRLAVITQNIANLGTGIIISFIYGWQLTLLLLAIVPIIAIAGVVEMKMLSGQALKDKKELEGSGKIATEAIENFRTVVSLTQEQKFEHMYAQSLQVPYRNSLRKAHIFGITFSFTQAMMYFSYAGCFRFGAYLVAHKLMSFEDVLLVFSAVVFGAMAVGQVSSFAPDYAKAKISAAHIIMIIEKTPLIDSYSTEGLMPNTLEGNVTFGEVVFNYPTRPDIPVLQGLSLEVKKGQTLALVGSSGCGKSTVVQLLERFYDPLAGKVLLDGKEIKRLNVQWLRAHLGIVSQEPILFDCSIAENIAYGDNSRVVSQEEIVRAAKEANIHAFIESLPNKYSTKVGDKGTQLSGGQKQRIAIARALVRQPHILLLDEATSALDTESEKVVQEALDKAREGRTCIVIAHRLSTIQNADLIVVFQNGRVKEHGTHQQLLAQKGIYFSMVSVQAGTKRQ
Experimental: P-glycoprotein functions as a drug pump that unilaterally pumps the anticancer agents out of MDR cancer cells. Inhibition of P-glycoprotein results in an increase of the intracellular drug concentration within cancer cells. […] Cells were collected at 60 minutes after incubation.

MRP1 = target: T1, MRP1 (Homo sapiens, UniProt P33527); experiment: Daunorubicin accumulation in HL60/adr cells (MRP1-mediated drug efflux), flow cytometry; type: cell-based; settings: 2 μg/ml daunorubicin; 60 minutes; FIG. 7
T1 construct: human cancer cell line HL60/adr, an MDR cell line characterized by MRP1 overexpression; endogenous in cells; host or cells: HL60/adr (human MDR cancer cell line)
T1 sequence (P33527 whole entry): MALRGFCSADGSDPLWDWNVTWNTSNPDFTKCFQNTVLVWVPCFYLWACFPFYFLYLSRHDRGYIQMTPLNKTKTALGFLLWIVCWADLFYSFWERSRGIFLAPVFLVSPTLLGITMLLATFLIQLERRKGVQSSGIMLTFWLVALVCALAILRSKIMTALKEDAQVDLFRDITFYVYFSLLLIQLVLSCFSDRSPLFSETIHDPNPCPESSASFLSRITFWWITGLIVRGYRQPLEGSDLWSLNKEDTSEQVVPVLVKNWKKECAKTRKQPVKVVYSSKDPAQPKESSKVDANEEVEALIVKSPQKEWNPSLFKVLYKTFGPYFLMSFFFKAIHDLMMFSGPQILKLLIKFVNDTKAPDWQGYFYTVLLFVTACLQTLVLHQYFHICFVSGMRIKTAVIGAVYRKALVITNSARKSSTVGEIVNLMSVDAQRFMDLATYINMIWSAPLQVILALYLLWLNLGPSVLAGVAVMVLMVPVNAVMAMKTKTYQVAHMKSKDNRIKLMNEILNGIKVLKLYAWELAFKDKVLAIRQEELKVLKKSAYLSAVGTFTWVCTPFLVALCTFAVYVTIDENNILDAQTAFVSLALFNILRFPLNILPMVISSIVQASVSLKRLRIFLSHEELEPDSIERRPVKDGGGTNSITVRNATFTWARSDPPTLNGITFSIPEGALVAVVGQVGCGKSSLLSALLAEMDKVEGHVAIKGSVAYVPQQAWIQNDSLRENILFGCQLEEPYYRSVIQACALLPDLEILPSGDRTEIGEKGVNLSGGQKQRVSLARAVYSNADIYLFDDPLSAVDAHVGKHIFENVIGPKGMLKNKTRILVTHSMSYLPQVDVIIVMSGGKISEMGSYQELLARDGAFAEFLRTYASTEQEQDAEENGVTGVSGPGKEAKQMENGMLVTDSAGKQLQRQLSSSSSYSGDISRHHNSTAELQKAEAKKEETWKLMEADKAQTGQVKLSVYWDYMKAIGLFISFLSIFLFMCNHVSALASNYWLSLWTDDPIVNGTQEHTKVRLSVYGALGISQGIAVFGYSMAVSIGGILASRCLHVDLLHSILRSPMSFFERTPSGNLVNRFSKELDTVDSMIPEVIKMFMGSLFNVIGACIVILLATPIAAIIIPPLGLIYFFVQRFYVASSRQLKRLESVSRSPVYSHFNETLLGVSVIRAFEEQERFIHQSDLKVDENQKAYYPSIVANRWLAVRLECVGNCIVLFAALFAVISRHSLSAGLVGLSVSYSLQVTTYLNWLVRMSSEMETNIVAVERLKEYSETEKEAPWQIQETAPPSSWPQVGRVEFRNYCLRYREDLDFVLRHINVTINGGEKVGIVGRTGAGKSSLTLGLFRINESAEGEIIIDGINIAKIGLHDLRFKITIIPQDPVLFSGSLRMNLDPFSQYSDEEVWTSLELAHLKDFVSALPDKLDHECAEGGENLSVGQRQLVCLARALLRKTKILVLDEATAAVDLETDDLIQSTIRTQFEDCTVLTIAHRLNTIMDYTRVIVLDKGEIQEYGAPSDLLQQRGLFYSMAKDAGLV
Source text: MRP1 functions as a drug pump that unilaterally pumps the anticancer agents out of MDR cancer cells. Inhibition of MRP1 results in an increase of intracellular drug concentration within cancer cells.

K562/adr = experiment: Reversal of drug resistance by ethanol extracts of Schisandra chinensis fruit, MTT cytotoxicity of anticancer agents; type: cell-based, human
Experimental: Assays were carried out in triplicate against human MDR cancer cell lines K562/adr, KBv200, and MCF7/adr. […] Alternatively, flow cytometry assays using FACS Calibur equipped with software Cellquest 3.1f (Becton-Dickinson, Holbrook, N.J.) were applied to count the cell numbers in each sample.

SMMC7721 = experiment: Enhancement of anticancer agent-induced apoptosis and necrosis, Anexin V-FITC/PI; type: cell-based, human; settings: SMMC7721; vincristine 0.5 μg/ml, Schisandrin B 20 μg/ml; 48 hours
Experimental: To illustrate the activities of Schisandrin B or its analogs enhancing the apoptosis of cancer cells induced by an anticancer agent according to the present disclosure, human cancer cell line SMMC7721, a non-drug-resistant hepatic cancer cell line, and MCF7, a non-drug-resistant breast cancer cell line, were selected for use. Assays were carried out in triplicates against SMMC7721 or MCF7. […] Cells were collected and the apoptotic cells and necrotic cell percentages were determined using Anexin V-FITC/PI kit (Sigma, St. Louis, Mo., USA) according to manufacturer's instructions. Alternatively, the apoptotic and necrotic cell percentages were measured using DNA Plus kit (Becton-Dickinson, USA) according to the manufacturer's instructions.

[2] = test system: human epidermoid carcinoma MDR cell line KBv200
[3] = test system: human breast cancer MDR cell line MCF7/adr
[4] = test system: human epidermoid carcinoma MDR cell line KBv200; experiment: cells; settings: KBv200, 72 h
[5] = test system: human breast cancer MDR cell line MCF7/adr; experiment: cells; settings: NCI/ADR-RES, 72 h
KBv200 = experiment: Reversal of drug resistance by ethanol extracts of Schisandra chinensis fruit, MTT cytotoxicity of anticancer agents
MCF7/adr = experiment: as above
[6] = anticancer agent in the presence of Schisandrin A (10 μg/ml), 72 hours
[7] = anticancer agent in the presence of Schisantherin A (10 μg/ml), 72 hours
[8] = read-out: IC50 (ng/ml) −Schisandrin A
[9] = read-out: IC50 (ng/ml) −Schisantherin A

## COc1cc2c(c(OC)c1OC)-c1c(cc3c(c1OC)OCO3)C[C@H](C)[C@](C)(O)[C@H]2OC(=O)c1ccccc1 [Schisantherin A]
[1]; FIG. 3
  sensitivity of MDR cancer cell K562/adr to daunorubicin (in words): increase the sensitivity
HL60/adr; compound 10 μg/ml
  drug sensitivity of HL60/adr toward the anticancer agents (in words): enhanced
P-glycoprotein
  accumulation of daunorubicin within MCF7/adr cells (in words): proportionately correlated with the increment of the concentration
MRP1
  daunorubicin accumulation within HL60/adr cells (in words): increased with the increasing concentration

## CC[C@]1(O)C[C@H]2CN(CCc3c([nH]c4ccccc34)[C@@](C(=O)OC)(c3cc4c(cc3OC)N(C=O)[C@H]3[C@@](O)(C(=O)OC)[C@H](OC(C)=O)[C@]5(CC)C=CCN6CC[C@]43[C@@H]65)C2)C1 [Vincristine]
K562/adr; Homo sapiens, anticancer agent in the absence of ethanol extracts, 72 hours, read-out: IC50 (ng/ml) −ethanol extract
  IC50: 870 ± 230 ng/mL
K562/adr; anticancer agent in the presence of ethanol extracts (50 μg/ml), 72 hours
  IC50 (ng/ml) +ethanol extract: 110 ± 42 ng/mL
K562/adr; by ethanol extracts (50 μg/ml)
  RF (reversal folds of drug resistance): 7.9
[1]; K562/adr, anticancer agent in the absence of Schisandrin A, 72 hours, read-out: IC50 (ng/ml) −Schisandrin A
  IC50: 612 ± 176 ng/mL
[1]; K562/adr, anticancer agent in the absence of Schisantherin A, 72 hours, read-out: IC50 (ng/ml) −Schisantherin A
  IC50: 612 ± 158 ng/mL
[1]; K562/adr, anticancer agent in the presence of Schisandrin A (10 μg/ml), 72 hours
  IC50 (ng/ml) +Schisandrin A: 7.3 ± 2.1 ng/mL
[1]; K562/adr, anticancer agent in the presence of Schisantherin A (10 μg/ml), 72 hours
  IC50 (ng/ml) +Schisantherin A: 7.7 ± 2.1 ng/mL
[1]; K562/adr, by Schisandrin A (10 μg/ml)
  RF (reversal folds of drug resistance): 83.8
[1]; K562/adr, by Schisantherin A (10 μg/ml)
  RF (reversal folds of drug resistance): 79.5
HL60/adr; HL60/adr, anticancer agent in the presence of Schisandrin A (10 μg/ml), 72 hours
  IC50 (ng/ml) +Schisandrin A: 3.3 ± 0.9 ng/mL
HL60/adr; HL60/adr, anticancer agent in the presence of Schisandrin B (10 μg/ml), 72 hours
  IC50 (ng/ml) +Schisandrin B: <1 ng/mL
HL60/adr; HL60/adr, anticancer agent in the presence of Schisantherin A (10 μg/ml), 72 hours
  IC50 (ng/ml) +Schisantherin A: 3.9 ± 0.9 ng/mL
HL60/adr; HL60/adr, by Schisandrin A (10 μg/ml)
  RF (reversal folds of drug resistance): 27.0
HL60/adr; HL60/adr, by Schisandrin B (10 μg/ml)
  RF (reversal folds of drug resistance): >48
HL60/adr; HL60/adr, by Schisantherin A (10 μg/ml)
  RF (reversal folds of drug resistance): 22.8
HL60/adr; HL60/adr, vincristine in the presence of Schisandrin B 5 μg/ml, 72 hours
  IC50 (ng/ml) +Schisandrin B: 5 ± 1 ng/mL
HL60/adr; HL60/adr, vincristine in the presence of Schisandrin B 10 μg/ml, 72 hours
  IC50 (ng/ml) +Schisandrin B: 4 ± 2 ng/mL
HL60/adr; HL60/adr, vincristine in the presence of Schisandrin B 20 μg/ml, 72 hours
  IC50 (ng/ml) +Schisandrin B: <1 ng/mL
HL60/adr; HL60/adr, anticancer agent in the absence of Schisandrin A, 72 hours, read-out: IC50 (ng/ml) −Schisandrin A
  IC50: 89 ± 21 ng/mL
HL60/adr; HL60/adr, anticancer agent in the absence of Schisandrin B, 72 hours, read-out: IC50 (ng/ml) −Schisandrin B
  IC50: 48 ± 12 ng/mL
HL60/adr; HL60/adr, anticancer agent in the absence of Schisantherin A, 72 hours, read-out: IC50 (ng/ml) −Schisantherin A
  IC50: 89.1 ± 21 ng/mL
HL60/adr; HL60/adr, vincristine in the absence of Schisandrin B, 72 hours, read-out: IC50 (ng/ml) −Schisandrin B
  IC50: 42 ± 1 ng/mL
SMMC7721
  Apoptotic + necrotic (%): 6.1 ± 0.4%
[2]; [6]
  IC50 (ng/ml) +Schisandrin A: 2.95 ± 0.7 ng/mL
[2]; [7]
  IC50 (ng/ml) +Schisantherin A: 3.7 ± 0.9 ng/mL
[2]; by Schisandrin A (10 μg/ml)
  RF (reversal folds of drug resistance): 7.6
[2]; by Schisantherin A (10 μg/ml)
  RF (reversal folds of drug resistance): 6.1
[3]; [6]
  IC50 (ng/ml) +Schisandrin A: 8.4 ± 2.3 ng/mL
[3]; [7]
  IC50 (ng/ml) +Schisantherin A: 24.1 ± 9.2 ng/mL
[3]; by Schisandrin A (10 μg/ml)
  RF (reversal folds of drug resistance): 59.6
[3]; by Schisantherin A (10 μg/ml)
  RF (reversal folds of drug resistance): 20.9
[4]; [8]
  IC50: 22.5 ± 3.2 ng/mL (≈ 0.0273 µM)
[4]; [9]
  IC50: 22.5 ± 5.6 ng/mL (≈ 0.0273 µM)
[5]; [8]
  IC50: 501 ± 129 ng/mL (≈ 0.607 µM)
[5]; [9]
  IC50: 501 ± 109 ng/mL (≈ 0.607 µM)
KBv200; Homo sapiens, KBv200, 72 h, read-out: IC50 (ng/ml) −ethanol extract
  IC50: 42 ± 14 ng/mL
KBv200; KBv200, by ethanol extracts (50 μg/ml)
  RF (reversal folds of drug resistance): 13.5
MCF7/adr; Homo sapiens, NCI/ADR-RES, 72 h, read-out: IC50 (ng/ml) −ethanol extract
  IC50: 490 ± 112 ng/mL
MCF7/adr; MCF7/adr, anticancer agent in the presence of ethanol extracts (50 μg/ml), 72 hours
  IC50 (ng/ml) +ethanol extract: 210 ± 32 ng/mL
MCF7/adr; MCF7/adr, by ethanol extracts (50 μg/ml)
  RF (reversal folds of drug resistance): 2.3
